The assay relates to Her2. In words: Degradation of Her2 in BT-474 cells (Method 1, SDS-PAGE/immunoblot). It is filed as cell-based, Human. The conditions noted are these: 0.5 μM, overnight. As for the experimental part:
Human high-Her2 breast carcinoma BT474 (HTB-20), SK-BR-3 (HTB-30) and MCF-7 breast carcinoma (HTB-22) from American Type Culture Collection, VA, USA are grown in Dulbecco's modified Eagle's medium with 4 mM L-glutamine and antibiotics (100 IU/ml penicillin and 100 ug/ml streptomycine; GibcoBRL). To obtain exponential cell growth, cells are trypsinized, counted and seeded at a cell density of 0.5×10^6 cells/ml regularly, every 3 days. All experiments are performed on day 1 after cell passage.
BT-474 cells are treated with 0.5 μM, 2 μM, or 5 μM of 17AAG (a positive control) or 0.5 μM, 2 μM, or 5 μM of a compound of the invention overnight in DMEM medium. After treatment, each cytoplasmic sample is prepared from 1×10^6 cells by incubation of cell lysis buffer (#9803, cell Signaling Technology) on ice for 10 minutes. The resulting supernatant used as the cytosol fractions is dissolved with sample buffer for SDS-PAGE and run on a SDS-PAGE gel, blotted onto a nitrocellulose membrane by using semi-dry transfer. Non-specific binding to nitrocellulose is blocked with 5% skim milk in TBS with 0.5% Tween at room temperature for 1 hour, then probed with anti-Her2/ErB2 mAb (rabbit IgG, #2242, Cell Signaling) and anti-Tubulin (T9026, Sigma) as housekeeping control protein. […]
For orientation: In western blotting, separated proteins are transferred to a membrane and probed.

Turning to `C=CCNC1=C2C[C@@H](C)C[C@H](OC)[C@H](O)[C@@H](C)/C=C(\C)[C@H](OC(N)=O)[C@@H](OC)/C=C\C=C(/C)C(=O)NC(=CC1=O)C2=O` [17AAG], the “degradation of Her2” value is “partial degradation”.

The values are drawn from patent publication US8629285B2, “Imidazole compounds that modulate HSP90 activity” (Synta Pharmaceuticals Corp., priority 2005, dated 2014).
